Test results reported in ChEMBL document CHEMBL1201862, “PubChem BioAssay data set” (2004).
Activity calls are given as the source filed them.

How the values were obtained:
[1] = molecular target: T1, Heat shock factor protein 1 (Mus musculus, UniProt P38532); assay: decrease of HSF1-responsive luciferase luminescence – cell-based, NIH3T3, dose retest, confirmation (AID 2382); format: functional;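 further: NIH3T3 fibroblasts with HSF1-driven luciferase reporter stressed by proteasome inhibitor MG132; luminescence from HSF1-driven luciferase expression after 8 hours of MG132 stress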
T1 sequence (P38532 whole entry): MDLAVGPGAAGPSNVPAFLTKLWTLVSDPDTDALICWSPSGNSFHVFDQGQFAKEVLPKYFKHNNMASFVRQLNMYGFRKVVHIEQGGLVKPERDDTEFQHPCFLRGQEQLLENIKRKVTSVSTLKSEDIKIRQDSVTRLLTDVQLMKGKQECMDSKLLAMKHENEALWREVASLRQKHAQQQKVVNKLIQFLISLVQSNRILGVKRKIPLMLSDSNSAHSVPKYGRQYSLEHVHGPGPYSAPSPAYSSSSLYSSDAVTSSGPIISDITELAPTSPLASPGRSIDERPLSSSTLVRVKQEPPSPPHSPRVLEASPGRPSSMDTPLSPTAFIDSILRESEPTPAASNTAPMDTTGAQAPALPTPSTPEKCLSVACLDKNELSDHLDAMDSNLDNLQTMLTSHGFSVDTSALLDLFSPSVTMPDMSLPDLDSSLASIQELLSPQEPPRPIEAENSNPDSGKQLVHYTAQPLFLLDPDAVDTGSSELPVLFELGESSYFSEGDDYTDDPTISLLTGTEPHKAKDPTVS

Cytochrome P450 2C19 = Cytochrome P450 2C19 (Homo sapiens, UniProt P33261); assay: Cytochrome panel assay with activity outcomes. Panel member name: p450-cyp2c19 Compounds with AC50 equal or less than 10 uM are considered active; format: functional; conditions: read-out: AC50
Cytochrome P450 1A2 = molecular target: T2, Cytochrome P450 1A2 (Homo sapiens, UniProt P05177);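 further: PubChem cytochrome P450 panel assay, CYP1A2 panel member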
T2 sequence (P05177 whole entry): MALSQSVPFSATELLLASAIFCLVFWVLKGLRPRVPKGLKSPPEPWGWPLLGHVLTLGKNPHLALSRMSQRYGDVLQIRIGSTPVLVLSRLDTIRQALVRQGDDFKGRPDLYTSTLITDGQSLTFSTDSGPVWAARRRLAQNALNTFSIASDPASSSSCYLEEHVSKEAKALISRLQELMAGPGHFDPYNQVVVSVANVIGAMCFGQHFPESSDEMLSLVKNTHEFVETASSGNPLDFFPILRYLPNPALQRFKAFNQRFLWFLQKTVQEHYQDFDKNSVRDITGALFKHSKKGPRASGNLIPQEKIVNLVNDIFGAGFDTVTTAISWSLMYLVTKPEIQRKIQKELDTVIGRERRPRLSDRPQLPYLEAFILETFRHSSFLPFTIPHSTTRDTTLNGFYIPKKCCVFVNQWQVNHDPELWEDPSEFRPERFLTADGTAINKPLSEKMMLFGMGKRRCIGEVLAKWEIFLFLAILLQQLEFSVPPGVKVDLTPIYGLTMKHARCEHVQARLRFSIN

Cytochrome P450 3A4 = Cytochrome P450 3A4 (Homo sapiens, UniProt P08684);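 further: CYP3A4 tested as one member of a cytochrome P450 panel screen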
Cytochrome P450 2C9 = Cytochrome P450 2C9 (Homo sapiens, UniProt P11712)
[2] = molecular target: T3, Replicative DNA helicase DnaB (Mycobacterium tuberculosis, UniProt P9WMR3); assay: DnaB intein splicing inhibitors, dose response, biochemical, cell-free fluorescence (AID 449749); format: functional
T3 sequence (P9WMR3 whole entry): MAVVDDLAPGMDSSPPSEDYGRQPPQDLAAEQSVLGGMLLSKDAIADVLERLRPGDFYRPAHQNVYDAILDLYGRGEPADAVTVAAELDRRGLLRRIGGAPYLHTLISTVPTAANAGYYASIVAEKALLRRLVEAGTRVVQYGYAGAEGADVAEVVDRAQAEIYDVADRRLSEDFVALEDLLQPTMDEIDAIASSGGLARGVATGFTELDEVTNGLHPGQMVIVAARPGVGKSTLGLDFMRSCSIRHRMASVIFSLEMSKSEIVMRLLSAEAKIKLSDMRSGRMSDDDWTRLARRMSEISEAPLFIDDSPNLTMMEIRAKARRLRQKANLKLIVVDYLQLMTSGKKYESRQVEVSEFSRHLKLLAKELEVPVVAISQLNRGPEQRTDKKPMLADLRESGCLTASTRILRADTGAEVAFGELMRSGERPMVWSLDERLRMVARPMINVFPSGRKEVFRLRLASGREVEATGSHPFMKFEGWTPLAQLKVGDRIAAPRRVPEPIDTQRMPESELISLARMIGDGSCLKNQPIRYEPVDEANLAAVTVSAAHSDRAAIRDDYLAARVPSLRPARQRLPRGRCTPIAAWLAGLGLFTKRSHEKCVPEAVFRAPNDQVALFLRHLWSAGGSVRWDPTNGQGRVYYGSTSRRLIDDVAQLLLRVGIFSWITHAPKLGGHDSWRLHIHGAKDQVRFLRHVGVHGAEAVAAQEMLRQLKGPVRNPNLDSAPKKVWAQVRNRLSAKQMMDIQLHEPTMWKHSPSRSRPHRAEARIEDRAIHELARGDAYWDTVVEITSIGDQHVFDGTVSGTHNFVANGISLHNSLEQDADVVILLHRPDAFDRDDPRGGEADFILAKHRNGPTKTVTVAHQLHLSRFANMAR

Protein RecA = molecular target: T4, Protein RecA (Mycobacterium tuberculosis, UniProt P9WHJ3); assay: Fluorescence Cell-Free Homogeneous Dose Retest to Identify Inhibitors of RecA-Intein Splicing Activity. [Related pubchem assays (depositor defined):AID2097, AID2223, AID489010, AID492950]; format: functional
T4 sequence (P9WHJ3 whole entry): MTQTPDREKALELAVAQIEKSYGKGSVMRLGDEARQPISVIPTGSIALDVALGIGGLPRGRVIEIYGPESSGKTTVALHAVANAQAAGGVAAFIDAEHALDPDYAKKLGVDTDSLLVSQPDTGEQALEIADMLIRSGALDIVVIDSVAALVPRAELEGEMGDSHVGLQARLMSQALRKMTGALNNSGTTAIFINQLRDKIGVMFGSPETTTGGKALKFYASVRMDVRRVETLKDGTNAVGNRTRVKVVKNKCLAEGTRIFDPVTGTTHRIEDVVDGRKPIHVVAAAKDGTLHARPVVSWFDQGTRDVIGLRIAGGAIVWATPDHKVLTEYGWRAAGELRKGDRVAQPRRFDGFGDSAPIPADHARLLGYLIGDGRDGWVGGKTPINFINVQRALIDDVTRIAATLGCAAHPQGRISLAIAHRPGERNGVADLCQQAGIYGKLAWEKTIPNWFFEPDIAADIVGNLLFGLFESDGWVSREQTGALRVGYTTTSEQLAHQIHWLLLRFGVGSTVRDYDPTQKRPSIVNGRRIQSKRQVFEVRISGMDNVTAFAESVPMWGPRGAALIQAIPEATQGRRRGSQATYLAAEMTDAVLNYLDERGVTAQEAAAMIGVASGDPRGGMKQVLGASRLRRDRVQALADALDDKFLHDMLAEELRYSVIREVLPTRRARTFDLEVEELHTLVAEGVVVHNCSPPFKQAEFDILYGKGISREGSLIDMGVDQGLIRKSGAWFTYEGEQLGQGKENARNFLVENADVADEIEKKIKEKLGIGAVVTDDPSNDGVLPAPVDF

Cytochrome P450 2D6 = Cytochrome P450 2D6 (Homo sapiens, UniProt P10635);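 further: CYP2D6 member of a cytochrome P450 panel assay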
INS1 = assay: INS-1E survival protection against cytokine death – cell-based, luminescence, retest, dose response (AID 449756); format: functional; conditions: Rattus norvegicus;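 further: cell death triggered by IL-1 beta plus TNF-alpha plus IFN-gamma mixture; protective hits raise ATP signal compared with cytokine alone wells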
[3] = molecular target: T5, Corticotropin-releasing factor receptor 2/Corticotropin-releasing factor-binding protein (Homo sapiens, UniProt P24387+Q13324); assay: Dose Response confirmation of uHTS hits for small molecule antagonists of the CRF-binding protein and CRF-R2 receptor complex.; format: functional; conditions: read-out: IC50_Mean
T5 sequence (Q13324 whole entry): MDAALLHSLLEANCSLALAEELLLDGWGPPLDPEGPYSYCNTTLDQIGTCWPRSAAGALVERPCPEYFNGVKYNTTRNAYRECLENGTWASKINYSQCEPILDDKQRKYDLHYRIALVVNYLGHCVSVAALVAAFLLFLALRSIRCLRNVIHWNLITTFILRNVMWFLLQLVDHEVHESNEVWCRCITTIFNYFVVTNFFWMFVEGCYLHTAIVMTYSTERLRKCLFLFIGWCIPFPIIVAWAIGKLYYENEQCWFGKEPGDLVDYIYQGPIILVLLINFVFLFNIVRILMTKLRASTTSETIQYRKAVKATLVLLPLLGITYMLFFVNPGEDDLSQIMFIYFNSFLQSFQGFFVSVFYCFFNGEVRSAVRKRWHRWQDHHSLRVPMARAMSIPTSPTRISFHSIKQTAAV
T5 sequence (P24387 whole entry): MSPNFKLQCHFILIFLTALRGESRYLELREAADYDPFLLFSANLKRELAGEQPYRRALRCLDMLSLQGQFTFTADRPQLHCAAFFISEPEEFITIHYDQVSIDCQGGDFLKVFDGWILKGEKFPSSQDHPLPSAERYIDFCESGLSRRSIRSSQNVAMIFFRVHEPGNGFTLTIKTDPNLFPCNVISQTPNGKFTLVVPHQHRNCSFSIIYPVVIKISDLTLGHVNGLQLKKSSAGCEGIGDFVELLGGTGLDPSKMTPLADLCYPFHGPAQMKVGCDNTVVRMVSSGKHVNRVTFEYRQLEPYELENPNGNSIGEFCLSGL

[4] = molecular target: T5, Corticotropin-releasing factor receptor 2/Corticotropin-releasing factor-binding protein; assay: activators of CRF receptor 2 with binding protein – uHTS hits, confirmation (AID 602473); format: functional; conditions: read-out: EC50_Mean

Sequence of Cytochrome P450 3A4 (P08684 whole entry): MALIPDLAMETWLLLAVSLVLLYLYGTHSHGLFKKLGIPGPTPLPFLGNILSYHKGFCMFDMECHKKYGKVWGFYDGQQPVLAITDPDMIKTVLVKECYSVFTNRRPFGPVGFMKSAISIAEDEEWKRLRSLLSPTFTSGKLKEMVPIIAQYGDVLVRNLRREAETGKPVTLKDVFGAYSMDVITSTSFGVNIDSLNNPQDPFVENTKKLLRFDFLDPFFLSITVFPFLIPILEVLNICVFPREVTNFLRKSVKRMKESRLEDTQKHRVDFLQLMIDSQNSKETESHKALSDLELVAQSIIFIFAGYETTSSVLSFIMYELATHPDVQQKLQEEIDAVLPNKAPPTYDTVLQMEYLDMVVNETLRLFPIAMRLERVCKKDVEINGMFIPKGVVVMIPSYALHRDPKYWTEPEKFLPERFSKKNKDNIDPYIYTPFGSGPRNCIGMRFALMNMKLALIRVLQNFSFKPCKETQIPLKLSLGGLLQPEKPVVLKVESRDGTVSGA
Sequence of Cytochrome P450 2D6 (P10635 whole entry): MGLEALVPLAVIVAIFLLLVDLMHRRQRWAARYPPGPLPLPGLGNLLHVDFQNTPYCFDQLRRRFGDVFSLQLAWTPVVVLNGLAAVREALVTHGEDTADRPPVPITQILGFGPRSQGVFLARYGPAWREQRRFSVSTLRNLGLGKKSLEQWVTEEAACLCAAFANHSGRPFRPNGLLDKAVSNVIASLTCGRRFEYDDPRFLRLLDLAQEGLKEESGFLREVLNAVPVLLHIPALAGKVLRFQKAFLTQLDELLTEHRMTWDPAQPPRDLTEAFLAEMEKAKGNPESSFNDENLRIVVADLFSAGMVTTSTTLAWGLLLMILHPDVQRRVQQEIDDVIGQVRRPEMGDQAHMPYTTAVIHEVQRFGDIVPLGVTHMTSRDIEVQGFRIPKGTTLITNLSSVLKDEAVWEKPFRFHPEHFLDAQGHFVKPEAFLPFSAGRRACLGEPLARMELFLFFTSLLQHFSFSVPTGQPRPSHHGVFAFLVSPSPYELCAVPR
Sequence of Cytochrome P450 2C19 (P33261 whole entry): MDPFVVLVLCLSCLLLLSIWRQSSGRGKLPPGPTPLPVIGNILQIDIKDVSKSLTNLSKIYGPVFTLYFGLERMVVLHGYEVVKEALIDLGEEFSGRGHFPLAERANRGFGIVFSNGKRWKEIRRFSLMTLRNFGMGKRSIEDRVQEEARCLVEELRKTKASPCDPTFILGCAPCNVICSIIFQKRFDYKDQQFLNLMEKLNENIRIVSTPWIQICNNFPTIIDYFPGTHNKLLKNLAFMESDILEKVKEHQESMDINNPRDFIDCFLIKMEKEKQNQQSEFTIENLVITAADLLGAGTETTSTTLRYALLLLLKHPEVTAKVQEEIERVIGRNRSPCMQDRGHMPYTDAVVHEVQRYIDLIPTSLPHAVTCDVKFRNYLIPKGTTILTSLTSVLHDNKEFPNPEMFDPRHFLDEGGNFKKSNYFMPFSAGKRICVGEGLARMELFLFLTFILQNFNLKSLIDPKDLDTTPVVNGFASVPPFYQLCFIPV
Sequence of Cytochrome P450 2C9 (P11712 whole entry): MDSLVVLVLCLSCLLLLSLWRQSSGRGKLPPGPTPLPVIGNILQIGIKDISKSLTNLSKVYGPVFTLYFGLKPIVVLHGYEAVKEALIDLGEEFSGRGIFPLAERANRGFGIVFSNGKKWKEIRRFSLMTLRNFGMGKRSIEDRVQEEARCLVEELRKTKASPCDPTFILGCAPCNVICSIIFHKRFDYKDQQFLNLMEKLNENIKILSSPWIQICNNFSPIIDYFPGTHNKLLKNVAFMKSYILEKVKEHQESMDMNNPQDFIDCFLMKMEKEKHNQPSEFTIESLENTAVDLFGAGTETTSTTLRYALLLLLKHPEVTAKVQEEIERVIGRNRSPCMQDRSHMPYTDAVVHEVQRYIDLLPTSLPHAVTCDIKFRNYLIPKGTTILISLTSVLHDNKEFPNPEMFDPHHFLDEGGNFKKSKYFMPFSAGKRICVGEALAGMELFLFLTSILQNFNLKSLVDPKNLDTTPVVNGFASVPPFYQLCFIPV

Cc1cc(C)nc(N=C(N)Nc2ccc3c(c2)OCCO3)n1
EC50 [1]: > 195 µM (not active)

COc1ccc(-n2c3c(c(=O)[nH]c2=O)C(C(F)(F)F)(C(F)(F)F)NC(CC(C)C)=N3)cc1
AC50 (Cytochrome P450 2C19): 10 µM (inconclusive)
AC50 (Cytochrome P450 1A2): 39.8 µM (inconclusive)
AC50 (Cytochrome P450 3A4): 17.8 µM (inconclusive)
AC50 (Cytochrome P450 2C9): 28.2 µM (inconclusive)

COc1ccc(/C(O)=C\C=N\c2cc(C)on2)c(OC)c1
EC50 [1]: > 195 µM (not active)

O=[N+]([O-])c1ccc2c(c1)N=C1O[C@H](c3ccc([C@H]4OC5=Nc6cc([N+](=O)[O-])ccc6NC5=C4O)cc3)C(O)=C1N2
AC50 (Cytochrome P450 1A2): 3.16 µM (inconclusive)
AC50 (Cytochrome P450 3A4): 3.16 µM (inconclusive)

CCOc1ccccc1N1CCN(C(=O)c2ccc(-c3ccc(OC(C)=O)cc3)cc2)CC1
AC50 [2]: 2.31 µM (active)
EC50 (Protein RecA): 58.4 µM (active)

CCN1C(=O)C(O)(CC(=O)/C=C/C=C/c2ccccc2)c2ccccc21 (stereo not given)
AC50 (Cytochrome P450 2C19): 35.5 µM (inconclusive)
AC50 (Cytochrome P450 3A4): 17.8 µM (inconclusive)
AC50 (Cytochrome P450 2C9): 0.141 µM (inconclusive)

c1ccc(Cc2nnc3sc(-c4cccs4)nn23)cc1
EC50 [1]: > 195 µM (not active)

c1ccc(N2CC[C@@]3(CCCNC3)C2)cc1
AC50 (Cytochrome P450 2D6): 10 µM (inconclusive)
AC50 (Cytochrome P450 1A2): 39.8 µM (inconclusive)
AC50 (Cytochrome P450 3A4): 20 µM (inconclusive)

Cn1cnnc1SCC(=O)OCN1C(=O)c2ccccc2C1=O
AC50 (Cytochrome P450 2C19): 10 µM (inconclusive)
AC50 (Cytochrome P450 1A2): 25.1 µM (inconclusive)

COc1ccc(-c2ccnc(SCC(=O)N3CCN(c4ccccc4)CC3)n2)cc1
AC50 (INS1): > 260 µM (inactive)
IC50 [3]: > 47.1 µM (inactive)
EC50 [4]: > 53 µM (inactive)

CC(=O)Nc1ccc(SCC(=O)N2CCN(S(=O)(=O)c3ccccc3)CC2)cc1
EC50 [1]: > 195 µM (not active)

O=C(Cn1nnc2ccccc21)NNC(=S)NC1CCCCC1
EC50 [1]: > 195 µM (not active)

O=c1c(-c2cc(F)cc(F)c2)nc2cnc(N3CCNCC3)nc2n1Cc1cccs1
AC50 (Cytochrome P450 2C19): 39.8 µM (inconclusive)
AC50 (Cytochrome P450 1A2): 2.51 µM (inconclusive)

COc1cc(OC)cc(C2C(C#N)=C(N)Oc3[nH]nc(-c4cccnc4)c32)c1 (stereo not given)
AC50 [2]: 18 µM (active)
EC50 (Protein RecA): 2.13 µM (active)

C=CCOc1c2ccc(C(=O)NC3CCCc4ccccc43)cc2nn1C (stereo not given)
AC50 (Cytochrome P450 2D6): 22.4 µM (inconclusive)
AC50 (Cytochrome P450 1A2): 15.8 µM (inconclusive)

O=C(c1ccc(Cl)cc1)n1cnc2ccccc21
AC50 [2]: 7.49 µM (active)
EC50 (Protein RecA): 8.13 µM (active)

CCOC(=O)Cc1n[nH]c2c1C(c1ccoc1)C(C#N)=C(N)O2 (stereo not given)
AC50 [2]: 18.4 µM (active)
EC50 (Protein RecA): 3.42 µM (active)

O=c1c2ccccc2nc(N2CCCC2)n1-c1ccc(Cl)cc1
AC50 (Cytochrome P450 2C19): 1.26 µM (inconclusive)
IC50 [3]: > 47.1 µM (inactive)
EC50 [4]: > 53 µM (inactive)
AC50 (Cytochrome P450 2D6): 10 µM (inconclusive)

CCC(C)NC(=O)c1ccccc1NC(=O)Nc1ccccc1 (stereo not given)
AC50 (Cytochrome P450 1A2): 3.16 µM (inconclusive)
AC50 (Cytochrome P450 2C9): 15.8 µM (inconclusive)

CNc1ncncc1-c1ccccc1OC
AC50 (Cytochrome P450 1A2): 1.58 µM (inconclusive)
AC50 (Cytochrome P450 3A4): 0.251 µM (inconclusive)

Cc1nn(-c2ccccc2)c(C)c1NC(=O)COc1ccc(Br)cc1Cl
AC50 (INS1): 34.2 µM (active)

CNCC(O)CN(c1ccccc1)c1ccccc1 (stereo not given)
AC50 [2]: 34.3 µM (active)
EC50 (Protein RecA): 10.8 µM (active)

N#CC(c1ccccc1F)(c1ncc(C(F)(F)F)cc1Cl)N1CCOCC1 (stereo not given)
AC50 (Cytochrome P450 1A2): 25.1 µM (inconclusive)
AC50 (Cytochrome P450 3A4): 22.4 µM (inconclusive)
AC50 (Cytochrome P450 2C9): 31.6 µM (inconclusive)

COc1cccc(OC(=O)CSc2nnc(-c3ccccc3Br)o2)c1
AC50 [2]: 3.09 µM (active)
EC50 (Protein RecA): 5.7 µM (active)

Cc1cc(C)cc(C(=O)OC2C[C@H]3CC[C@@H](C2)N3C)c1 (stereo not given in full)
AC50 (Cytochrome P450 2C19): 39.8 µM (inconclusive)
AC50 (Cytochrome P450 1A2): 25.1 µM (inconclusive)

C[C@H]1CCCC=CC2C[C@H](O)C[C@@H]2[C@H](O)/C=C\C(=O)O1 (stereo not given in full)
AC50 (Cytochrome P450 1A2): 15.8 µM (inconclusive)
AC50 (Cytochrome P450 3A4): 31.6 µM (inconclusive)
AC50 (Cytochrome P450 2C9): 15.8 µM (inconclusive)
